Source: patent US12084472B2 (Ardelyx, Inc., priority 2015, dated 2024)

target: T1, human TGR5 (Homo sapiens, UniProt Q8TDU6); assay: Cell-based TGR5 assay (cAMP generation, HTRF); settings: HEK293 cells stably transfected with human TGR5; cAMP by HTRF; 30 minutes at 37° C.; read-out: pEC50 Human TGR5 (converted)
T1 construct: expressed in transfected cells; host or cells: HEK293
T1 sequence (Q8TDU6 1-330): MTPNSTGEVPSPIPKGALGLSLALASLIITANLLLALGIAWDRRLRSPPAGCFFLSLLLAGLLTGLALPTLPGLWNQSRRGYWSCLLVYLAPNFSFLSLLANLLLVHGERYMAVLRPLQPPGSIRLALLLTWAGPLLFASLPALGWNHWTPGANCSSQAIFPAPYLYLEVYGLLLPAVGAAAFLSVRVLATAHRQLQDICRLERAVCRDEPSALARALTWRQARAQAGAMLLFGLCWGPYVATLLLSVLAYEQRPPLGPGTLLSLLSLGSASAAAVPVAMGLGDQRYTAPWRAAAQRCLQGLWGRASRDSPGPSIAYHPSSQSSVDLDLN
In short: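 Read-out was HTRF detection of cAMP, converted to concentration via a standard curve and fitted (3-parameter logistic) for pEC50 and maximal response. Agonist stimulation used HEK293 cells stably transfected with human TGR5, incubated 30 min at 37° C in IBMX-containing buffer at 0.05 nM to 10 μM compound.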

| SMILES | EC50 [nM] |
| --- | --- |
| CC(CCCN(CCN1CCNC1=O)C(=O)[C@@H](O)[C@@H](O)[C@H](O)[C@@H](O)CO)c1ccc(Cl)c(CNC2(c3cnccc3-c3ccccc3OC3CC3)CC2)c1 (stereo partly drawn) [Compound I-277, (2S,3S,4R,5S)-N-(4-{4-chloro-3-[({1-[4-(2-cyclopropoxyphenyl)pyridin-3-yl]cyclopropyl}amino)methyl]phenyl}pentyl)-2,3,4,5,6-pentahydroxy-N-[2-(2-oxoimidazolidin-1-yl)ethyl]hexanamide] | 126 to 1000 |
| O=C(NCCCN1CCN(S(=O)(=O)c2ccc(Cl)c(COC3(c4cnccc4-c4ccccc4OC4CC4)CC3)c2)CC1)NC[C@H](O)[C@@H](O)[C@H](O)[C@H](O)CO [Compound I-423, 1-(3-{4-[4-chloro-3-({1-[4-(2-cyclopropoxyphenyl)pyridin-3-yl]cyclopropoxy}methyl)benzenesulfonyl]piperazin-1-yl}propyl)-3-[(2S,3R,4R,5R)-2,3,4,5,6-pentahydroxyhexyl]urea] | 126 to 1000 |
| Clc1cccc(COC2(c3cnccc3-c3ccccc3OC3CC3)CC2)c1Cl [Compound I-47, 4-(2-cyclopropoxyphenyl)-3-{1-[(2,3-dichlorophenyl)methoxy]cyclopropyl}pyridine] | 126 to 1000 |
| Cc1ccc(C(C)CCCC(=O)N(CCN(C)C)C[C@H](O)[C@@H](O)[C@H](O)[C@H](O)CO)cc1CNC1(c2cnccc2-c2ccccc2OC2CC2)CC1 (stereo partly drawn) [Compound I-361, 5-{3-[({1-[4-(2-cyclopropoxyphenyl)pyridin-3-yl]cyclopropyl}amino)methyl]-4-methylphenyl}-N-[2-(dimethylamino)ethyl]-N-[(2S,3R,4R,5R)-2,3,4,5,6-pentahydroxyhexyl]hexanamide] | 126 to 1000 |
| O=C(NCCCCCSc1ccc(Cl)c(COC2(c3cnccc3-c3ccccc3OC3CC3)CC2)c1)N[C@H]1CC[C@H](NC(=O)NC[C@H](O)[C@@H](O)[C@H](O)[C@H](O)CO)CC1 [Compound I-630, 1-(5-{[4-chloro-3-({1-[4-(2-cyclopropoxyphenyl)pyridin-3-yl]cyclopropoxy}methyl)phenyl]sulfanyl}pentyl)-3-[(1r,4r)-4-({[(2S,3R,4R,5R)-2,3,4,5,6-pentahydroxyhexyl]carbamoyl}amino)cyclohexyl]urea] | < 100 |
| CCOC(=O)NCCN(CCCSc1ccc(Cl)c(COC2(c3cnccc3-c3ccccc3OC3CC3)CC2)c1)C(=O)[C@@H](O)[C@@H](O)[C@H](O)[C@@H](O)CO [Compound I-597, ethyl N-{2-[(2S,3S,4R,5S)-N-(3-{[4-chloro-3-({1-[4-(2-cyclopropoxyphenyl)pyridin-3-yl]cyclopropoxy}methyl)phenyl]sulfanyl}propyl)-2,3,4,5,6-pentahydroxyhexanamido]ethyl}carbamate] | 126 to 1000 |
| Cc1ccc(CCCCC(=O)NC[C@H](O)[C@@H](O)[C@H](O)[C@H](O)CO)cc1CNC1(c2cnccc2-c2ccccc2OC2CC2)CC1 (stereo in doubt) [Compound I-237, 5-{3-[({1-[4-(2-cyclopropoxyphenyl)pyridin-3-yl]cyclopropyl}amino)methyl]-4-methylphenyl}-N-[(2S,3R,4R,5R)-2,3,4,5,6-pentahydroxyhexyl]pentanamide] | 126 to 1000 |
| CN(C[C@H](O)[C@@H](O)[C@H](O)[C@H](O)CO)C(=O)CCCCc1cc(Cl)c(CNC2(c3cnccc3-c3ccccc3OC3COC3)CC2)cc1Cl [Compound I-177, 5-(2,5-dichloro-4-{[(1-(4-[2-(oxetan-3-yloxy)phenyl]pyridin-3-yl}cyclopropyl)amino]methyl)phenyl)-N-methyl-N-[(2S,3R,4R,5R)-2,3,4,5,6-pentahydroxyhexyl]pentanamide] | < 100 |
| CS(=O)(=O)NCCCN(CCCCSc1ccc(Cl)c(CNC2(c3cnccc3-c3ccccc3OC3CC3)CC2)c1)C(=O)[C@@H](O)[C@@H](O)[C@H](O)[C@@H](O)CO [Compound I-591, (2S,3S,4R,5S)-N-[4-({4-chloro-3-[({1-[4-(2-cyclopropoxyphenyl)pyridin-3-yl]cyclopropyl}amino)methyl]phenyl}sulfanyl)butyl]-2,3,4,5,6-pentahydroxy-N-(3-methanesulfonamidopropyl) hexanamide] | 126 to 1000 |
| O=S(=O)(c1ccc(Cl)c(COC2(c3cnccc3-c3ccccc3OC3CC3)CC2)c1)N1CCCCC1 [Compound I-396, 3-(1-{[2-chloro-5-(piperidine-1-sulfonyl)phenyl]methoxy}cyclopropyl)-4-(2-cyclopropoxyphenyl)pyridine] | < 100 |
| Clc1ccc(Cl)c(CNC2(c3cnccc3-c3ccccc3OC3CCOC3)CC2)c1 (stereo not shown) [Compound I-21, N-[(2,5-dichlorophenyl)methyl]-1-{4-[2-(oxolan-3-yloxy)phenyl]pyridin-3-yl}cyclopropan-1-amine] | 126 to 1000 |
| CCC(OCc1cc(Cl)ccc1Cl)c1cnccc1-c1ccccc1OC1CC1 (stereo not shown) [Compound I-779, 4-(2-cyclopropoxyphenyl)-3-(1-((2,5-dichlorobenzyl)oxy)propyl)pyridine] | 1260 to 10000 |
| CC(CCCC(=O)N1CCC(NC(=O)NC[C@H](O)[C@@H](O)[C@H](O)[C@H](O)CO)CC1)c1ccc(Cl)c(CNC2(c3cnccc3-c3ccccc3OC3CC3)CC2)c1 (stereo partly drawn) [Compound I-320, 1-[1-(5-{4-chloro-3-[({1-[4-(2-cyclopropoxyphenyl)pyridin-3-yl]cyclopropyl}amino)methyl]phenyl}hexanoyl)piperidin-4-yl]-3-[(2S,3R,4R,5R)-2,3,4,5,6-pentahydroxyhexyl]urea] | < 100 |
| O=C(CCCCc1cc(Cl)c(COC2(c3cnccc3-c3ccccc3OC3CC3)CC2)cc1Cl)N[C@@H]1[C@@H](O)[C@H](O)[C@@H](CO)O[C@H]1O [Compound I-154, 5-[2,5-dichloro-4-({1-[4-(2-cyclopropoxyphenyl)pyridin-3-yl]cyclopropoxy}methyl)phenyl]-N-[(2R,3R,4R,5S,6R)-2,4,5-trihydroxy-6-(hydroxymethyl)oxan-3-yl]pentanamide] | < 100 |
| CN(C[C@H](O)[C@@H](O)[C@H](O)[C@H](O)CO)C(=O)CCCCc1cc(Cl)c(COC2(c3cnccc3-c3ccccc3OC3COC3)CC2)cc1Cl [Compound I-192, 5-{2,5-dichloro-4-[(1-{4-[2-(oxetan-3-yloxy)phenyl]pyridin-3-yl}cyclopropoxy)methyl]phenyl}-N-methyl-N-[(2S,3R,4R,5R)-2,3,4,5,6-pentahydroxyhexyl]pentanamide] | < 100 |
| O=C(CN1CCC(NC(=O)NCCCCCSc2ccc(Cl)c(COC3(c4cnccc4-c4ccccc4OC4CC4)CC3)c2)CC1)NC[C@H](O)[C@@H](O)[C@H](O)[C@H](O)CO [Compound I-631, 2-(4-{[(5-{[4-chloro-3-({1-[4-(2-cyclopropoxyphenyl)pyridin-3-yl]cyclopropoxy}methyl)phenyl]sulfanyl}pentyl)carbamoyl]amino}piperidin-1-yl)-N-[(2S,3R,4R,5R)-2,3,4,5,6-pentahydroxyhexyl]acetamide] | < 100 |
| Cc1ccc(C(C)CCCC(=O)N(CCS(C)(=O)=O)C[C@H](O)[C@@H](O)[C@H](O)[C@H](O)CO)cc1CNC1(c2cnccc2-c2ccccc2OC2CC2)CC1 (stereo partly drawn) [Compound I-369, 5-{3-[({1-[4-(2-cyclopropoxyphenyl)pyridin-3-yl]cyclopropyl}amino)methyl]-4-methylphenyl}-N-(2-methanesulfonylethyl)-N-[(2S,3R,4R,5R)-2,3,4,5,6-pentahydroxyhexyl]hexanamide] | < 100 |
| O=C([C@@H](O)[C@@H](O)[C@H](O)[C@@H](O)CO)N(CCCSc1ccc(Cl)c(COC2(c3cnccc3-c3ccccc3OC3CC3)CC2)c1)CCOCCO [Compound I-518, (2S,3S,4R,5S)-N-(3-{[4-chloro-3-({1-[4-(2-cyclopropoxyphenyl)pyridin-3-yl]cyclopropoxy}methyl)phenyl]sulfanyl}propyl)-2,3,4,5,6-pentahydroxy-N-[2-(2-hydroxyethoxy)ethyl]hexanamide] | < 100 |
| O=C1NCCN1CCN(CCCCSc1ccc(Cl)c(COC2(c3cnccc3-c3ccccc3OC3CC3)CC2)c1)C(=O)[C@@H](O)[C@@H](O)[C@H](O)[C@@H](O)CO [Compound I-517, (2S,3S,4R,5S)-N-(4-{[4-chloro-3-({1-[4-(2-cyclopropoxyphenyl)pyridin-3-yl]cyclopropoxy}methyl)phenyl]sulfanyl}butyl)-2,3,4,5,6-pentahydroxy-N-[2-(2-oxoimidazolidin-1-yl)ethyl]hexanamide] | < 100 |
| FC(F)(F)Oc1ccccc1-c1ccncc1C1(NCc2cc(Cl)ccc2Cl)CC1 [Compound I-11] | 126 to 1000 |
| Cc1ccc(SCCCCN(CCS(C)(=O)=O)C[C@H](O)[C@@H](O)[C@H](O)[C@H](O)CO)cc1COC1(c2cnccc2-c2ccccc2OC2CC2)CC1 [Compound I-615, (2R,3R,4R,5S)-6-[(4-{[3-({1-[4-(2-cyclopropoxyphenyl)pyridin-3-yl]cyclopropoxy}methyl)-4-methylphenyl]sulfanyl}butyl)(2-methanesulfonylethyl)amino]hexane-1,2,3,4,5-pentol] | < 100 |
| O=C(O)CCCNC(=O)N(CCCCc1cc(Cl)c(COC2(c3cnccc3-c3ccccc3OC3CC3)CC2)cc1Cl)C[C@H](O)[C@@H](O)[C@H](O)[C@H](O)CO [Compound I-199, 4-[({4-[2,5-dichloro-4-({1-[4-(2-cyclopropoxyphenyl)pyridin-3-yl]cyclopropoxy}methyl)phenyl]butyl}[(2S,3R,4R,5R)-2,3,4,5,6-pentahydroxyhexyl]carbamoyl)amino]butanoic acid] | 126 to 1000 |
